Where two headings read alike, the source gives them in different places.
Assays:
[1] = tested on: D-aminogalactose-induced acute liver damage; assay: D-aminogalactose-induced acute liver damage of rats; assay type: in vivo, Wistar Rats
From the text: Wistar Rats (body weight of each was 180 g˜220 g; half of them were male and the others were female; and they were purchased from Shanghai Slac Laboratory Animal, Inc.) were divided randomly into 6 groups as follows with 10 rats in each group: (1) the diammonium glycyrrhizinate injection group, injected with diammonium glycyrrhizinate; (2) the high dose group, immunized with Peptide A and adjuvant; (3) the medium dose group, immunized with Peptide A and adjuvant; (4) the low dose group, immunized with Peptide A and adjuvant; (5) the blank control group; and (6) the model group.
Rats in the high dose group, the medium dose group and the low dose group were immunized as follows: At Day 0, the first immunization was performed by the following process: 100 μl of Peptide A dissolved in physiological saline was mixed thoroughly with the equivalent volume of Freund's complete adjuvant, and then 0.2 ml of the resultant water-in-oil emulsion was administered via subcutaneous injection to each rat, wherein the dosage of Peptide A contained in the emulsion was 174 μg/kg rat body weight for the high dose group, 87 μg/kg rat body weight for the medium dose group, and 43.5 μg/kg rat body weight for the low dose group respectively. 14 days later, the second immunization was performed in the same dosage and manner as the first immunization except that, Freund's complete adjuvant was replaced by Freund's incomplete adjuvant. […]
At the 48th hour after intraperitoneally injecting D-aminogalactose, each rat was sacrificed by cervical dislocation, and blood was collected. After sera were isolated, according to the specification of the manufacturer, the activities of glutamic-pyruvic transaminase (SGPT) and glutamic-oxalacetic transaminase (SGOT) in sera were detected respectively by using Glutamic-pyruvic Transaminase Detection Kit (purchased from Nanjing Jiancheng Bioengineering Institute) and Glutamic-oxalacetic Transaminase Detection Kit (purchased from Nanjing Jiancheng Bioengineering Institute).

[2] = tested on: BCG vaccine and lipopolysaccharide-induced immunological liver damage; assay type: in vivo, Wistar Rats; conditions: for pathological condition of liver (score) versus model group: P<0.05
IL-10 = assay: Level of IL-10 in sera of immunized mice by ELISA; assay type: in vivo, BALB/c Mice; conditions: first day after the fourth immunization
Description: (§1) BALB/c Mice, all of which are male, 6 week old, and purchased from the Laboratory Animal Center of Academy Of Military Medical Sciences, Beijing, were divided into 4 groups as follows with 5 mice in each group: (1) the control group; (2) the Peptide A group, immunized with Peptide A; (3) the Peptide B group, immunized with Peptide B; and (4) the Peptide C group, immunized with Peptide C.
(§2) 50 μl of the peptide (100 μg/μl) used in the corresponding group and 50 μl of Freund's complete adjuvant (GIBCOBRL Corp.) were mixed thoroughly with a microstirrer, and the mixture was injected into the claw pad of a mouse, thereby the first immunization was performed for each of the mice. 14 days later, booster immunization was performed in the same manner as the first immunization with 50 μl of the peptide (100 μg/μl) used in the corresponding group and 50 μl of Freund's complete adjuvant (GIBCOBRL Corp.). 14 days later, another booster immunization was performed in the same manner. 14 days later, boost immunization was performed by injecting 100 μg of the peptide dissolved in 200 μl PBS into the mouse intramuscularly. During the process of immunization, only the corresponding adjuvant and PBS were injected for the control group. At the first day after the fourth immunization, mice were sacrificed and sera were collected.
(§3) According to the specification of the manufacturer, the levels of cytokines (i.e., IL-4, IL-10, and γ-IFN) in sera of the above immunized mice were detected respectively by using IL-4 Quantikine ELASA Kit, IL-10 Quantikine ELASA Kit, and γ-IFN Quantikine ELASA Kit (all of which are purchased from R&D, Inc.).

[3] = tested on: Sera of Patients with HCV (anti-HCV antibody-positive sera); assay: Indirect ELISA, reactivity of the peptides to anti-HCV antibody-positive sera; assay type: binding, human; conditions: for reactivity to sera of patients with HCV compared to sera of patients with HBV and healthy donors: X^2-test; for Percentage of Positive Cases (%) / The Number of Positive Cases: anti-HCV antibody-positive sera of 30 patients, sera dilution 1:100, 10 μg peptide coated
Description: Anti-HCV antibody-positive sera: randomly obtained from inpatients infected with HCV in the Liberation Army 302 Hospital from 2000 to 2001.
(§4) The reactivity of the individual peptide of the invention to sera was detected by standard indirect ELISA technology using Model DG3022 Enzyme-Linked Immunoassay Analyzer (purchased from Perkin Elmer Corporation). 10 μg of Peptide A, Peptide B, Peptide C, and Peptide Conjugate A were added respectively into the basic coating buffer (0.1 mol/L NaHCO3, 35 μl; 0.1 mol/L Na2CO3, 15 μl; H2O, 50 μl), and then transferred into the wells of polypropylene/ethylene microtiter plate, and placed at 4° C. overnight. After adding 120 μl of FCS-PBS, each well was blocked at 37° C. for 2 hours. Sera (dilution of 1:100) were then added to the wells, and incubated at 37° C. for 1 hour. Goat anti-human IgGs (dilution of 1:1000) (purchased from Sino-American Biotechnology Company, Beijing) were then added to the wells, and incubated at 37° C. for 1 hour. 50 μl of Solution A and Solution B (purchased from Beijing Kewei Reagent Company) were added to every well, placed in the dark for 5 min, and then the absorbance at 450 nm was measured.

γ-IFN [4] = assay: Effects of the peptide on γ-IFN of rats in vivo; parameters: species or system SD Rats; conditions: four immunizations
From the text: SD Rats (body weight of each was 180 g˜220 g; half of them were male and the others were female; and they were purchased from the Animal Institute of Academy Of Military Medical Sciences) were divided randomly into 5 groups as follows with 10 rats in each group: (1) the blank control group; (2) the adjuvant control group; (3) the high dose group, immunized with Peptide A and adjuvant; (4) the low dose group, immunized with Peptide A and adjuvant; and (5) the peptide group, immunized with Peptide A only.
Rats in the high dose group and the low dose group were immunized as follows: At Day 0, the first immunization was performed by the following process: Peptide A dissolved in physiological saline was mixed thoroughly with the equivalent volume of Freund's complete adjuvant, and then 0.1 ml of the resultant water-in-oil emulsion was administered via subcutaneous injection to each rat, wherein the dosage of Peptide A contained in the emulsion was 50 μg/kg rat body weight for the high dose group and 25 μg/kg rat body weight for the low dose group respectively. […]
At the first day after the fourth immunization, rats from every group were sacrificed and splenocytes were collected. […] According to the specification of the manufacturer, the level of γ-IFN in sera of the above immunized rats was detected by using γ-IFN ELASA Quantikine ELASA Kit (purchased from R&D, Inc.).

IL-4 = assay: Level of IL-4 in sera of immunized mice by ELISA; assay type: in vivo, BALB/c Mice; conditions: first day after the fourth immunization
Description: as §1, §2, §3

[5] = tested on: tetrachloromethane-induced liver damage; assay: Tetrachloromethane-induced liver damage of mice; assay type: in vivo, BALB/c mice
Description: At the first before the first immunization, 0.05 ml CCl4 (available from Shanghai Linfen Chemical Reagent Co., Ltd.) was administered via subcutaneous injection to each mouse of all groups other than the blank control group; and the equivalent volume of physiological saline was injected for the blank control group.
Mice in the high dose group, the medium dose group and the low dose group were immunized as follows: the first immunization was performed by the following process: 1000 of Peptide A dissolved in physiological saline was mixed thoroughly with the equivalent volume of Freund's complete adjuvant, and then 0.2 ml of the resultant water-in-oil emulsion was administered via subcutaneous injection to each mouse, wherein the dosage of Peptide A contained in the emulsion was 250 μg/kg mouse body weight for the high dose group, 125 μg/kg mouse body weight for the medium dose group, and 62.5 μg/kg mouse body weight for the low dose group respectively. 14 days later, the second immunization was performed in the same dosage and manner as the first immunization except that, Freund's complete adjuvant was replaced by Freund's incomplete adjuvant. 14 days later, the third immunization was performed in the same dosage and manner as the first immunization except that, Freund's complete adjuvant was replaced by Freund's incomplete adjuvant. 14 days later, the fourth immunization was performed by the following process: 0.1 ml of Peptide A dissolved in physiological saline was administered without any adjuvants via intraperitoneal injection to each rat, wherein the dosage of Peptide A was 250 μg/kg mouse body weight for the high dose group, 125 μg/kg mouse body weight for the medium dose group, and 62.5 μg/kg mouse body weight for the low dose group respectively.
At the days of immunization for the high dose group, the medium dose group and the low dose group, starting at Day 0, the corresponding physiological saline was injected into each rat of the model group and the blank control group, for up to four times; meanwhile, the corresponding adjuvant and physiological saline were injected for the adjuvant control group, for up to four times.
At the first day before the fourth immunization, 0.05 ml CCl4 was administered via subcutaneous injection to each mouse of all groups other than the blank control group; and the equivalent volume of physiological saline was injected for the blank control group. At the second day after the fourth immunization, all of mice were sacrificed.
Just before sacrificing all mice, each rat was weighed, and then sacrificed by cervical dislocation. Then Blood was collected, before sera were isolated.

[6] = tested on: sera of patients with HBV; assay: Indirect ELISA, reactivity of the peptides to sera of patients with Hepatitis B; assay type: binding, human; conditions: sera of 10 patients with HBV
Description: Sera of patients with Hepatitis B (HBV): obtained from inpatients with Hepatitis B in the Liberation Army 302 Hospital, who was positive for the surface antigen of Hepatitis B virus as assayed.
as §4

γ-IFN [7] = assay: Level of γ-IFN in sera of immunized mice by ELISA; assay type: in vivo, BALB/c Mice; conditions: first day after the fourth immunization
Description: as §1, §2, §3

sera of healthy donors = assay: Indirect ELISA, reactivity of the peptides to control sera of healthy donors; assay type: binding, human; conditions: sera of 10 healthy donors
Description: Control sera: obtained from healthy blood donors, who had normal blood indexes in each assay.
as §4

[8] = 13.5 mg/kg intraperitoneal, every day for 7 days
[9] = high, medium, low dosage (250, 125, 62.5 μg/kg) with adjuvant, four immunizations, CCl4 subcutaneous
[10] = high, medium, low dosage (174, 87, 43.5 μg/kg) with adjuvant, four immunizations, 48 h after D-aminogalactose 600 mg/kg
[11] = high, medium, low dosage (174, 87, 43.5 μg/kg) without adjuvants, subcutaneous, four immunizations, 12 h after LPS

Molecule | IL-10(pg/ml serum) (IL-10) | reactivity to sera of patients with HCV compared to sera of patients with HBV and healthy donors [3] | Percentage of Positive Cases (%) [3] | The Number of Positive Cases [3] | IL-4(pg/ml serum) (IL-4) | reactivity in ELISA Assay to sera of patients with HBV [6] | γ-IFN(pg/ml serum) (γ-IFN [7]) | reactivity in ELISA Assay to sera of healthy donors (sera of healthy donors) | further results
CC1(C)[C@@H](O[C@H]2O[C@H](C(=O)O)[C@@H](O)[C@H](O)[C@H]2O[C@@H]2O[C@H](C(=O)O)[C@@H](O)[C@H](O)[C@H]2O)CC[C@]2(C)[C@H]3C(=O)C=C4[C@@H]5C[C@@](C)(C(=O)O)CC[C@]5(C)CC[C@@]4(C)[C@]3(C)CC[C@@H]12.N.N [diammonium glycyrrhizinate injection, diammonium glycyrrhizinate, reference compound] |  |  |  |  |  |  |  |  | protective effect on acute liver damage of rats (SGPT, SGOT) [1, 8]: significant protective effect; protective effect on liver damage of rats (SGPT, SGOT) [2, 8]: no significant protective effect; protective effect on liver damage of rats (pathological condition score) [2, 8]: no significant protective effect
GQTYTSG [Peptide A] | 27.94 ± 6.4 pg/ml serum | significantly react | 43% | 13 | 29.64 ± 4.9 pg/ml serum | negative | 23.46 ± 5.9 pg/ml serum | negative | level of γ-IFN, Peptide A only with no adjuvant, versus same dosage of Peptide A and adjuvant (γ-IFN [4]; 50 μg/kg subcutaneous): even higher; γ-IFN in sera of the immunized rats compared to both of the control groups (γ-IFN [4]; Peptide A 50 or 25 μg/kg with adjuvant, or 50 μg/kg without adjuvant, FIG. 2): significant increase; tetrachloromethane-induced hepatomegaly of mice ([5]; 250 μg/kg mouse body weight): significant reduction; pathological conditions of the liver tissues (score) versus model group ([5]; high dose group, 250 μg/kg with adjuvant): alleviated significantly; level of glutamic-oxalacetic transaminase (SGOT) in sera versus model group [5, 9]: significant decrease; level of glutamic-pyruvic transaminase (SGPT) in sera versus model group [5, 9]: significant decrease; level of glutamic-oxalacetic transaminase (SGOT) in sera versus model group [1, 10]: significant decrease; level of glutamic-pyruvic transaminase (SGPT) in sera versus model group [1, 10]: significant decrease; pathological condition of liver (score) versus model group ([2]; high and medium dosage (174, 87 μg/kg) without any adjuvants): significant alleviation; level of glutamic-oxalacetic transaminase (SGOT) in sera versus model group [2, 11]: significant decrease; level of glutamic-pyruvic transaminase (SGPT) in sera versus model group [2, 11]: significant decrease; pathological condition of liver (score) versus model group ([2]; low dosage (43.5 μg/kg) with adjuvant): significant alleviation; protective effect on acute immunological liver damage (SGPT, SGOT) ([2]; low dose & adjuvant group, 43.5 μg/kg): protective effect
GQTYTSGA [Peptide B] | 27.94 ± 6.4 pg/ml serum | significantly react | 50% | 15 | 30.64 ± 4.9 pg/ml serum | negative | 28.46 ± 5.9 pg/ml serum | negative | 
GQTYTSGG [Peptide C] | 26.926 ± 5.8 pg/ml serum | significantly react | 47% | 14 | 31.22 ± 5.0 pg/ml serum | negative | 24.81 ± 5.8 pg/ml serum | negative | 
